Laboratory results reported in patent publication US20260007624A1, “COMPOSITION FOR AMELIORATING OR TREATING CANCER CACHEXIA […] LACTATE AS ACTIVE INGREDIENT” (METIMEDI PHARMACEUTICALS CO., LTD., priority 2022, published 2026).
“And” between values parts separate entries of the source, which are not always exact repeats. Equal entries are not always repeated.

How the values were obtained:
[1] = tested on: colon cancer cell line HCT-116; experiment: Cytotoxicity assay, colon cancer cells; format: cell-based; conditions: HCT-116, 48 hours, FIG. 2 lower panel
Description: 5×10^3 of normal colon fibroblast cell line CCD-18Co or colon cancer cell line HCT-116 were cultured in a 96-well plate at 37° C., 5% CO2. Incubator and observed under a microscope after 48 hours.

Hif-1α = experiment: Western blot of Hif-1α expression in cancer cells; format: cell-based; conditions: for Hif-1α expression: hypoxia 1% O2, FIG. 4
Description: Then, Hif-1α antibody was diluted in TBST and attached to the protein on the membrane, washed with TBST, and treated with secondary antibody, and the band results were confirmed using X-ray film or Gel doc equipment.

[2] = Tissue pharmacokinetics (lactate concentration in muscle and tumor tissue); format: in vivo, Balb/c nude mice; conditions: HCT-116 tumor mice, 20 mg/kg S.C.
Description: Balb/c nude mice were obtained and 1×10^6 HCT-116 was implanted subcutaneously to grow tumors. […] Each obtained tissue was analyzed for changes in lactate concentration over time using a lactate analysis kit.

[3] = tested on: metastatic colorectal cancer refractory to standard therapy; experiment: Phase II clinical trial of calcium lactate (cachexia, tumor response, survival, safety); format: in vivo, patients; design: key to Overall tumor response: SD means that tumor growth has stopped; PD means that the tumor has increased by 20% or more
Description: The clinical study was a phase II clinical trial targeting patients with metastatic colorectal cancer refractory to standard therapy.
Twenty-two patients were enrolled, and 16 completed the trial (see Table 1).
The administration method was subcutaneous injection, and the administration dose was 100 mg/day. One cycle consisted of 4 weeks of treatment with 5 days of I.P. administration subcutaneously once daily followed by 2 days of rest.
Tumor assessment was performed every 2 cycles compared to baseline.
The clinical outcomes were the primary outcome of disease control rate, and the secondary outcomes were overall survival, progression-free survival, and safety. Body weight was measured 1 month after the start of administration and expressed as the increase or decrease in body weight before and after administration. Tumor response was performed with a CT scan 2 months after the start of administration and expressed as the increase or decrease in tumor size before and after administration. SD means that tumor growth has stopped, and PD means that the tumor has increased by 20% or more.
BMI and Weight TO were measured at the screening visit, and Weight T1mo and SLD changes in the target lesion were measured 1 and 2 months after IP administration, respectively. SLD is an abbreviation for sum of longest diameters. SD and PD are abbreviations for stable disease and progressive disease, respectively.

[4] = 8 patients with weight loss including cachexia
[5] = of 16 patients who completed the trial

For `CC(O)C(=O)[O-].CC(O)C(=O)[O-].[Ca+2]` (stereo not drawn) [calcium lactate], the “effect on survival in colorectal cancer cells” value [1] was “cancer cell death can be observed”, the Hif-1α expression (Hif-1α; AsPC-1 (pancreatic cancer)) was “reduced” and the Hif-1α expression (Hif-1α; H1975 (lung cancer)) was “reduced”. The Hif-1α expression (Hif-1α; HCT-116 (colon cancer)) was “reduced”, the Hif-1α expression (Hif-1α; MDA-MB-231 (breast cancer)) was “reduced” and the “expression of Hif-1α protein” value (Hif-1α; colon cancer cells, hypoxia, FIG. 3 upper panel) was “reduced”. For the same molecule, the “concentration of lactate in muscle tissue” value [2] was “no change”, the “concentration of lactate in tumor tissues” value ([2]; 2 hours after administration) was “increases” and the “efficacy of preventing patients from cachexia” value ([3]; 2 out of 16 patients progressed to cancerous cachexia) was 87.5%. For the same molecule, the median overall survival ([3]; 8 patients with maintained or increased weight) was 8 months, the “median increase in tumor size” value [3, 4] was 17% and the median overall survival [3, 4] was 4.15 months. The “median increase in tumor size” value ([3]; 8 patients with weight maintenance or increase) was 9.5%, the disease control rate ([3]; 16 patients) was 68.75% and the “drug efficacy for tumor growth arrest” value ([3]; 16 patients, metastatic stage) was 68.8%. The Overall survival ([3]; individual patient) was 2.4 months and 4.4 months and 6 months and 14.9 months and 7.6 months and 2.7 months and 3.6 months and 7.9 months and 23 months and 8.1 months and 5.1 months and 6.3 months and 16.7 months and 25.8 months, the “SLD change at target lesions” value ([3]; individual patient, CT scan 2 months after start, RECIST 1.1) was 12.5% and 10.8% and 15.7% and 12.6% and 9.1% and 34.7% and 17.7% and 29.0% and −2.9% and 129.2% and 3.3% and 15.6% and 10.0% and 18.4% and 2.2% and 6.2% and the Overall tumor response ([3]; individual patient, RECIST 1.1) was “SD (11×) and PD (PD means that the tumor has increased by 20% or more) (5×)”. For the same molecule, the Weight change ([3]; individual patient, screening to 1 month of treatment, 100 mg/day subcutaneous) was 1.4% (3×) and −4.6% and 1.1% and 6.0% and −1.3% and −3.6% and 0.0% and −6.7% and −3.4% and 3.4% and −4.9% and 10.6% and −0.8%, the “Cachexia, % of patients” value [3, 5] was 12.5% and the “Cachexia, number of patients” value [3, 5] was 2. For the same molecule, the “Weight gain (maintained or increased weight), number of patients” value [3, 5] was 8, the “Weight gain, % of patients” value [3, 5] was 50.0% and the “Weight loss (not corresponding to cachexia), number of patients” value [3, 5] was 6. The “Weight loss, % of patients” value [3, 5] was 37.5%, the “number of patients with stable disease” value ([3]; out of 16 patients) was 11 and the “DLT (dose limiting toxicity)” value ([3]; phase 2 clinical trials) was “Non-DLT”.
